Data on four molecules can be found in patent publication US20210009630A1, “CYCLIC DINUCLEOTIDES AS STING AGONISTS” (Janssen Biotech, Inc., priority 2017, published 2021).

In test [1] the test system is human STING pathway (THP1-ISG cells). Kind of test: STING human cell reporter assay. The test is classed as cell-based. As to conditions: Homo sapiens, IRF-inducible SEAP reporter, 24 h, means of at least three values. How it is done:
Agonism of the human STING pathway is assessed in THP1-ISG cells (Invivogen, cat #thp-isg) derived from human THP1 monocyte cell line by stable integration of an interferon regulatory factor (IRF)-inducible SEAP reporter construct. THP1-Blue ISG cells express a secreted embryonic alkaline phosphatase (SEAP) reporter gene under the control of an ISG54 minimal promoter in conjunction with five interferon (IFN)-stimulated response elements. As a result, THP1-Blue ISG cells allow the monitoring of IRF activation by determining the activity of SEAP. The levels of IRF-induced SEAP in the cell culture supernatant are readily assessed with alkaline phosphatase detection medium, a SEAP detection reagent. These cells are resistant to Zeocin. 2′3′cGAMP was used as a positive control in this assay. To run the assay, 60,000 cells were dispensed in 30 μL/well of a white, opaque bottom tissue culture treated 384-well plate.
Test compounds were added in a volume of 10 μL (1% DMSO final concentration). Compounds are initially prepared in 100% DMSO, spotted on an compound dilution plate and then diluted in media prior to transfer. The assay was incubated for 24 h at 37° C., 5% CO2 then plates were centrifuged at 1200 rpm (120×g) for 5 min. After final incubation, 90 μL of alkaline phosphatase detection medium-substrate was added to each well of a new 384-well clear plate and 10 μL of the cell supernatant was transferred from the assay plate to the new alkaline phosphatase detection medium-plate using a Biomek FX and mixed 4 times. Plates were incubated at RT for 20 min then absorbance at 655 nm was determined on the Tecan Safire2.
Background: A reporter such as luciferase makes a cellular process visible.

The subject of test [2] is THP1-Blue ISG cells (IFN-β secretion). Nature of the test: Human interferon-β induction assay. It counts as cell-based. To be noted: total cumulative IFN-β induction over the dose range tested (0.78 to 50 uM) in THP-1 cells after a 24 hour exposure. The method, then: THP1-Blue ISG cells are used to measure the secretion of IFN-β into the culture supernatant following STING pathway activation. To run the assay, anti-IFN-β capture antibodies were coated on […] well MultiArray plates (Mesoscale Discovery). After a one hour incubation, plates were washed and 50 μL supernatant from the STING human cell reporter assay plates or IFN-β standards were mixed with 20 μL Sulfotag-conjugated detection antibody in the coated plates. Plates were incubated, shaking for 2 h, washed, and read buffer was applied. Electrochemiluminescence was measured on the SectorImager.

In test [3] the target is human STING (biotinylated STING protein, residues 139-379 of Q86WV6, H232R) (Homo sapiens, UniProt Q86WV6, H232R). Nature of the test: STING SPA binding assay.
Method: The HIS tag is cleaved after purification and prior to biotinylation.
Test compounds (80 nL) were added with an acoustic dispenser (EDC Biosystems) in 100% DMSO for a final assay concentration of 1% DMSO. Plates were centrifuged for 1 min and incubated for 60 min at room temperature. […] Plates were dark adapted for 2 h and read on a ViewLux (Perkin Elmer) for 12 min per plate.
In test [4] the test system is CT26 colon carcinoma tumor. Kind of test: STING in vivo activity, mouse CT26 tumor model. As to conditions: 0.05 mg intratumorally every three days, three doses, 8 mice per group; for In vivo activity (% TGI): CT26 tumors in Balb/c mice. How it is done:
For all studies, female Balb/c mice were obtained from Charles River Labs (Wilmington, Mass.) and used when they were 6-8 weeks of age and weighed approximately 20 g. All animals were allowed to acclimate and recover from any shipping-related stress for a minimum of 5 days prior to experimental use. Reverse osmosis chlorinated water and irradiated food (Laboratory Autoclavable Rodent Diet 5010, Lab Diet) were provided ad libitum, and the animals were maintained on a 12 h light and dark cycle. Cages and bedding were autoclaved before use and changed weekly. All experiments were carried out in accordance with The Guide for the Care and Use of Laboratory Animals and were approved by the Institutional Animal Care and Use Committee of Janssen R & D, Spring House, Pa. Each experimental group contained 8 mice. In vivo efficacy in a mouse CT26 tumor model was determined by implanting 500,000 CT26 colon carcinoma tumor cells subcutaneously into Balb/c mice and allowing tumors to establish to 100-300 mm^3. Compounds were injected intratumorally formulated in phosphate buffered saline in a volume of 0.1 mL Per injection. Mice were administered 0.05 mg every three days for a total of three doses. Efficacy was measured as the percent tumor growth inhibition (TGI) calculated by the reduction in size of the Treated tumor volume (T) over the Control tumor volume (C) according to the following formula. ((C−T)/(C))*100 when all control animals were still on study. Cures were defined as the number of animals with no measurable tumor detected 10 tumor volume doubling times (TVDT) after the last dose was administered.

For test [5], the target named is T1, human STING (E. coli produced truncated STING protein) (Homo sapiens, UniProt Q86WV6, H232R).
T1 construct: contains residues 139-379 of Q86WV6 with an R at position 232 (H232R); HIS tag (N, cleaved yes); made in house; host or cells: E. coli
Nature of the test: STING SPR binding assay. As to conditions: steady state affinity, 1:1 binding model, 25° C. The method, then: Compounds were analyzed on an S200 biacore SPR instrument (GE Healthcare). E. coli produced truncated STING protein was immobilized on a series S streptavidin chip via biotin capture (GE Healthcare #BR100531) with. […] Steady state affinity and kinetic evaluations were carried out using 1:1 binding model (STING was treated as a dimer). Run parameters were as follows: 60 sec on, 300 sec off for the IFM compounds, cyclic-di-GMP (60 sec on/60 sec off), thiol isomer 1 (60 sec on/300 sec off) and cGAMP (60 sec on/1200 sec off) with a flow rate of 50 μL/min and data collection at 40 Hz at 25° C.
(SPR reads the build-up and loss of mass on a sensor chip optically.)

T1 sequence (Q86WV6 139-379 H232R): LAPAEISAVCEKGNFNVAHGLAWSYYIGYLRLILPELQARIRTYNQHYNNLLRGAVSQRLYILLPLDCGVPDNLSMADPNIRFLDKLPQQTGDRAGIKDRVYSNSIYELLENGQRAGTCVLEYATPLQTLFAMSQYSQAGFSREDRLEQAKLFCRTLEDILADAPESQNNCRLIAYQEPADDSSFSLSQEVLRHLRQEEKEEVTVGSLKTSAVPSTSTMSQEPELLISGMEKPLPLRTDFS
human STING (biotinylated STING protein, residues 139-379 of Q86WV6, H232R), sequence (Q86WV6 139-379 H232R, one chain of several): as the sequence (Q86WV6 139-379 H232R) above

A word on the EC50: it is the concentration at which the effect is half-maximal. By IC50 is commonly meant the concentration that inhibits the measured activity by half. Usually Kd stands for the concentration at which binding is half-saturated. Read a low Kd as tighter binding. Regarding `CO[C@H]1[C@H]2OS(=O)(=O)NC[C@H]3O[C@@H](n4cnc5c(N)ncnc54)[C@H](F)[C@@H]3OP(=O)(O)OC[C@H]1O[C@H]2n1cnc2c(=O)[nH]c(N)nc21` [Compound 1], the EC50 in test [1] came to 77 nM. The “human IFN-β (ranking value)” value in test [2] is 7930 pg/mL. For the same molecule, in test [3], the IC50 is 4.6 nM. Besides, in test [4], the “In vivo activity (% TGI)” value is reported as 108.9%. Also, the “In vivo activity (cures)” value in test [4] (number of animals with no measurable tumor 10 tumor volume doubling times after the last dose) amounted to 6. Further, the Kd in test [5] was found to be 1.2 nM.

Take `CO[C@H]1[C@H]2OS(=O)(=O)NC[C@]34CO[C@H](C3OP(=O)(O)OC[C@H]1O[C@H]2n1cnc2c(=O)[nH]c(N)nc21)[C@H](n1cnc2c(N)ncnc21)O4` (stereo partly shown) [Compound 9]: the EC50 in test [1] is 110 nM. In test [2], the “human IFN-β (ranking value)” value amounted to 8104 pg/mL. The IC50 in test [3] came to 2790 nM. Also, in test [5], the Kd worked out at 280 nM.

In turn, `CO[C@H]1[C@H]2OP(=O)(O)OC[C@@]34CO[C@@H]([C@H](n5cnc6c(N)ncnc65)O3)[C@@H]4OS(=O)(=O)NC[C@H]1O[C@H]2n1cnc2c(=O)[nH]c(N)nc21` [Compound 25] returned an EC50 in test [1] of 100 nM. In test [2], the “human IFN-β (ranking value)” value stood at 6595 pg/mL. For the same molecule, the IC50 in test [3] worked out at 29200 nM. Also, in test [4], the “In vivo activity (% TGI)” value is reported as 88.9%. Also, binding in test [5] was characterised by a dissociation constant (Kd) of 3480 nM.

In test [1], `CO[C@H]1[C@H]2OP(=O)(O)OC[C@H]3O[C@@H](n4cnc5c(N)ncnc54)[C@H](F)[C@@H]3NS(=O)(=O)OC[C@H]1O[C@H]2n1cnc2c(=O)[nH]c(N)nc21` [Compound 6] gave an EC50 of 990 nM. Further, the “human IFN-β (ranking value)” value in test [2] worked out at 6762 pg/mL. This molecule also registered an IC50 in test [3] of 11 nM. The Kd in test [5] was determined as 1.2 nM.
